Data published in US20230413823A1, “HYPERLOADED YEAST CELL WALL PARTICLE AND USES THEREOF” (priority 2022, published 2023).
≈ marks a conversion by molar mass, not a printed value. Where two headings read alike, the source gives them in different places.

Legend:
[1] = Solubility in organic loading and leave-in solvents
[2] = Payload encapsulation (loading) efficiency in YPs by HPLC; assay type: physicochemical
Description: Samples of YP-GET (10 μL, 10 mg YP/mL) were stained with Nile red (2 μL, 0.1 mg/mL) and fluorescein labeled concanavalin-A (FITC ConA, 2 μL, 0.1 mg/mL) to qualitatively assess loading by the fluorescence microscopy of the encapsulated fluorescent terpene-Nile red complex in the FITC ConA labeled yeast particle. Nile red was imaged using a rhodamine (red) filter (maxi-mum excitation/emission wavelengths at 550/570 nm) and FITC-ConA was imaged with a green filter at 490/520 nm. Microscopy images were collected with an Olympus BX60 upright compound fluorescent microscope. YP GET samples (100 mg) were centrifuged to collect excess liquid (free terpene and water) and the pellet fraction was resuspended in 10 mL of 90% methanol-10% water to extract encapsulated terpenes. Terpenes were quantified by HPLC operated with 32 KARAT™ software version 7.0 (Beckman Coulter, Inc, Brea, CA, USA), using a Waters […]® C18 column (3.5 μm, 4.6×150 mm) with acetonitrile:water 50:50 as mobile phase, flow rate at 1 mL/min, injection volume of 10 μL, and terpene detection at 254 nm. […] The quantification of terpenes was done by measuring the peak area and interpolating the concentration using a calibration curve obtained with terpene standards.
Terpenes were mixed with water and YPs from two different manufacturers and incubated at room temperature for 48 hours and encapsulation efficiency of terpenes in YPs was measured as described above after incubation at room temperature for 2 days.
Dry YPs from two different manufacturers were mixed with water (0.5mL water/g YP) for 30 minutes to obtain a uniform hydrated YP suspension. Limonene was added to the YP sample and incubated at 40° C. for one week to allow for complete limonene loading. Loading efficiency was quantitatively measured by the basic HPLC procedure described above using assay details listed in Table 10 and qualitatively assessed by fluorescence microscopy as described before. Particle diameter was measured as described before.
Dry YPs from two different manufacturers were mixed with water (0.5 to 2.5 mL water/g YP) for 30 minutes to obtain a uniform hydrated YP suspension. […] Loading efficiency was quantitatively measured by the basic HPLC procedure described above using assay details listed in Table 12 and qualitatively assessed by fluorescence microscopy as described above. Particle diameter was measured as described above.
Dry YPs from two different manufacturers were mixed with water (2.5 to 5 mL water/g YP) for 30 minutes to obtain a uniform hydrated YP suspension. Triallate was added to the YP sample and incubated at 40° C. for 3 to 7 days to allow for complete loading. Loading efficiency was quantitatively measured by the basic HPLC procedure described above using assay details listed in Table 14 and qualitatively assessed by fluorescence microscopy as described before. Particle diameter was measured as described before.
Dry GLPs/YPs were mixed with water (0.5 to 4.5 mL water g GLP/YP) for 30 minutes to obtain a uniform hydrated YP suspension. THC was added to the GLP/YP sample and incubated at 23° C. for 48 hours to allow for complete THC loading. Loading efficiency was quantitatively measured by the basic HPLC procedure described above using assay details listed in Table 16 and qualitatively assessed by fluorescence microscopy as described above. Particle diameter was measured as described above.
Two different kinds of dry YPs were mixed with water (0.5 to 4.5 mL water/g YP) for 30 minutes to obtain a uniform hydrated YP suspension. λCy was added to the YP sample and incubated at 55° C. for one week to allow for complete λCy loading. Loading efficiency was quantitatively measured by the basic HPLC procedure described above using assay details listed in Table 18 and qualitatively assessed by fluorescence microscopy as described before. Particle diameter was measured as described before.
PTP is highly soluble in acetone and dichloromethane. […]

Candida albicans SC5134 = assay: Antimicrobial microplate assay (MIC 75%); assay type: cell-based
Description: The antimicrobial activity of YP-GET was evaluated using a modified published microplate assay procedure (Sultanbawa, Y.; Cusack, A.; Currie, M.; Davis, C. An Innovative Microplate Assay to Facilitate the Detection of Antimicrobial 538Activity in Plant Extracts. J. Rapid Meth. Aut. Mic. 2009, 17 (4), 519-534. haps://doi.org/10.111/j.1745-4581.2009.00187.x). Samples of YP-GET were suspended in 100 μL of growth medium (LB 395was used in antibacterial assays and YPD in antifungal assays) and added to the first row 396 (Row A) of a 96-well plate (all wells in the 96-well plate contain additional 100 μL medium). Serial dilutions (1:1) were performed by transferring 100 μL from Row A to Row B, etc., and finally removing 100 μL from Row H. Diluted Escherichia coli Top10 (Invitrogen, Carlsbad CA), Staphylococcus aureus ATCC 19636 or Candida albicans SC5134 cells (100 μL, […]) were added to all wells of the plate. Initial (t=0) and final (t=16 h, 37° C.) absorbance readings were taken at 650 nm.

[3] = cited from earlier work; for water/octanol partition coefficient (log P): chemical and physical properties tables
[4] = cited from earlier work
H. pylori = conditions: concentration of 2 mg/L; cited from earlier work
C. albicans = conditions: cited from earlier work
S. cerevisiae = conditions: cited from earlier work
[5] = Payload release from YPs upon dilution in water (HPLC of supernatant); assay type: physicochemical
Description: Sustained payload release from YPs occurs by payload diffusion out of the particles and is a function of the payload's solubility in water. […] Samples were incubated at room temperature. Amount of triallate released from the particles into the supernatant was quantified by HPLC as described before.
λCy-YP samples loaded at a w/w λCy:YP ratio of 1:1 were diluted in water ±surfactant (1% w/v IGEPAL) at target λCy concentrations of 0.001, 0.01, 0.1 and 1 mg/mL. Samples were incubated at room temperature for 3 hours. Supernatant was collected to measure amount of λCy released from the particles. The amount of λCy was quantified by HPLC as described above.
PTP-YP samples prepared without leave in solvent or with leave-in solvent GET424 or DMDA. Samples carrying PTP:YP weight ratio 1:1, PTP:GET:YP ratio of 1:1:1 or PTP:DMDA:YP ratio of 1:1:1 were diluted in water at a target PTP concentration of 0.001, 0.01, 0.1 and 1 mg/mL. Samples were incubated at room temperature. Supernatant was collected to measure amount of payload released from the particles.

physchem = conditions: organic solvent or mixture
[6] = Table 21, cited from earlier work
[7] = chemical and physical properties tables

C=C(C)[C@@H]1CCC(C)=C[C@H]1c1c(O)cc(CCCCC)cc1O [CBD, cannabidiol]
solubility ([1]; DMSO, organic solvent or mixture): 200000 µg/mL (≈ 636 mM) | solubility ([1]; GET424, organic solvent or mixture): 10000 µg/mL (≈ 31.8 mM) | CBD Solubility Ethanol ([1]; ethanol): Miscible at 1:1 weight ratio* | CBD Solubility Methanol ([1]; methanol): Miscible at 1:1 weight ratio* | CBD Solubility Octanoic Acid (OA) ([1]; octanoic acid): Miscible at 0.5:1 CBD:OA ratio | encapsulation efficiency ([2]; 3:1 (CBD+OA):GLP ratio, OA leave-in solvent): high encapsulation efficiency | encapsulation efficiency ([2]; CBD:YP weight ratios up to 5:1, multiple loading cycles, GLPs): high encapsulation efficiency

OC(Cn1cncn1)(Cn1cncn1)c1ccc(F)cc1F [Fluconazole]
fold lower concentration than YP GET to reach MIC 75% (Candida albicans SC5134): 10 fold

CC(C)=CCC/C(C)=C/CO [Geraniol]
Log P ([3]; water/octanol, Table 2): 3.56 | Maximum solubility in water ([4]; Table 1): 686 µg/mL | Solubility in Water ([4]; Table 2): 686 µg/mL (≈ 4.45 mM) | Maximum solubility in water ([4]; terpenes in the GET composition): 686 µg/mL | in vitro growth of H. pylori (H. pylori): inhibited | growth of C. albicans strains (C. albicans): inhibit the growth | growth of S. cerevisiae strains (S. cerevisiae): inhibit the growth

CC1(C)C(/C=C(\Cl)C(F)(F)F)[C@H]1C(=O)O[C@H](C#N)c1cccc(Oc2ccccc2)c1 (stereo partly drawn) [Lambda cyhalotrin]
Log P ([3]; Table 1): 7.0 | water/octanol partition coefficient (log P) [3]: 7.0 | Maximum solubility in water ([4]; Table 1): 0.005 µg/mL | Solubility in Water [4, 7]: 2.8 µg/mL (≈ 0.00622 mM) | payload encapsulation ([2]; λCy:YP ratios up to 5:1, no solvent): 77-90% | λCy release from YPs ([5]; dilution to 0.001 mg λCy/mL, λCy:YP 1:1, 3 hours room temperature): over 80%

C=C(C)[C@H]1CC=C(C)CC1 [Limonene]
loading efficiency ([2]; limonene:YP ratio of 3:1, both types of YPs): high efficiency

CC(C)CC(C)c1sccc1NC(=O)c1cn(C)nc1C(F)(F)F (stereo not drawn) [PTP, Penthiopyrad]
solubility (physchem): 200000 µg/mL (≈ 556 mM) | PTP release from YPs ([5]; DMDA leave-in solvent, PTP:DMDA:YP 1:1:1): improved release at 0.1 and 0.01 mg PTP/mL | PTP release from YPs ([5]; GET424 leave-in solvent, PTP:GET:YP 1:1:1): improved release at 0.01 mg PTP/mL | PTP release from YPs ([5]; without a leave-in solvent, PTP:YP 1:1): released from YPs only at a concentration above maximum solubility in water

CCCCCc1cc(O)c2c(c1)OC(C)(C)[C@@H]1CCC(C)=C[C@@H]21 [Tetrahydrocannabinol (THC), Tetrahydrocannabinol, reference compound]
Log P ([3]; Table 1): 5.9 | water/octanol partition coefficient (log P) [3]: 5.9 | Maximum solubility in water ([4]; Table 1): 2.8 µg/mL | Solubility in Water [4, 7]: 2.8 µg/mL (≈ 0.0089 mM) | loading efficiency ([2]; THC:YP ratio of up to 5:1): high efficiency

CC(C)N(C(=O)SCC(Cl)=C(Cl)Cl)C(C)C [Triallate]
triallate located inside YPs ([2]; triallate:YP w/w ratios up to 4:1, no solvent): 94 -100% | release of triallate from the YP ([5]; dilution to 0.001 mg/mL, triallate:YP 3:1 and 4:1): ~100%

OC(Cc1ccccc1Cl)(Cn1nc[nH]c1=S)C1(Cl)CC1 (stereo not drawn) [prothioconazole]
water/octanol partition coefficient (log P) [3]: 4.05 | Solubility Water ([4]; Table 21): 22.5 µg/mL (≈ 0.0654 mM) | Solubility DMSO ([6]; DMSO): 126000 µg/mL (≈ 366 mM) | Solubility Acetone ([6]; acetone): 444000 µg/mL (≈ 1290 mM) | Solubility Ethyl acetate ([6]; ethyl acetate): 220000 µg/mL (≈ 639 mM) | encapsulation efficiency ([2]; PRO:YP ratios up to 3:1, three loading cycles, acetone): more than 83%

Clomazone
Log P ([3]; Table 1): 2.5 | water/octanol partition coefficient (log P) [3]: 2.5 | clomazone located inside YPs ([2]; clomazone:YP w/w ratios up to 5:1, no solvent): 96-100%
